Test results published in patent US20110275559A1, “Long-Acting Y2 and/or Y4 Receptor Agonists” (Novo Nordisk A/S, priority 2008, published 2011).
*1 amine or outer side, *2 acyl side, *3 side chain or, on linkers, in order; H or OH if unused. Where a SMILES comes first, the peptide text is derived from it. Side-chain parts run from the residue outwards. The star is where a group is joined. C20 diacid = O=C(O)CCCCCCCCCCCCCCCCCCC(=O)*; γGlu = O=C(O)[C@H](CCC(=O)[*:2])N[*:1]; Trx = NC[C@H]1CC[C@H](C(=O)O)CC1; AEEA = NCCOCCOCC(=O)O

Molecular target: T1, Y2 receptor (Homo sapiens, UniProt P49146)
T1 construct: host or cells: ACTOne HEK-293 cells
T1 sequence (P49146 1-381): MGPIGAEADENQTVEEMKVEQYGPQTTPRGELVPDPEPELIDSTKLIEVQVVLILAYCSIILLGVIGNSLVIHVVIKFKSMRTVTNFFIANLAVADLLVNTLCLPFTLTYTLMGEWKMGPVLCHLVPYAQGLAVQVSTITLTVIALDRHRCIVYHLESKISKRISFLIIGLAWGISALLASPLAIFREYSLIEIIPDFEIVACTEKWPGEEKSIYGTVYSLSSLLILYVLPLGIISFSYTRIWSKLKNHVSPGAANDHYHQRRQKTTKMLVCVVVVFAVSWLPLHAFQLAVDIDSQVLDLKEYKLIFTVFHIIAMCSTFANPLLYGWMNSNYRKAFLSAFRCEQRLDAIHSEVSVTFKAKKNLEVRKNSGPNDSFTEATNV
Test: Y2 receptor ACTOne based FLIPR assay (cAMP biosensor)
Format: cell-based
Text: ACTOne™ is an easily scaleable cAMP biosensor HTS platform for measurement of Gs and Gi coupled 7™ receptor signalling from BD Biosciences (San Jose, Calif.). The cells express a biosensor developed around a modified rat olfactory cyclic nucleotide gated (CNG) calcium channel—a fairly non-discriminatory ion channel that responds to cAMP and cGMP. The CNG has been engineered to be cAMP selective and thus function as a cAMP responsive biosensor that signals through calcium or membrane potential responsive dyes. Y2 or Y4 receptor expressing ACTOne HEK-293 cells are obtained from BD Biosciences. The cells are loaded with a calcium responsive dye that only distributes in the cytoplasm. Probenecid, an inhibitor of the organic anion transporter is added to prevent the dye from leaving the cell. A phosphodiesterase inhibitor is added to prevent formatted cAMP from being degraded. Isoproterenol (an β1/β2 agonist) is added to activate the adenylate cyclase. When an Y2 or Y4 receptor agonist is added, the adenylate cyclase is inactivated. The decreased calcium concentration in the cytoplasm is then detected as an increase in fluorescence. Together with the test substance, Isoproterenol at a concentration matching EC80, is added to all wells. • The cells are plated out in Greiner 384-well plates. […] The plates are covered with tinfoil to avoid light (the dye can be excited by the daylight, which results in higher baseline and variation). • The FLIPR (FLIPRtetra from Molecular Devices, CA, USA) adds 1 μl sample and 1 μl isoproterenol (0.05 μM final concentration) at the same time. • The fluorescence signal from the wells is measured 330 seconds after sample addition on the FLIPR.

Question: `CC[C@H](C)[C@H](NC(=O)[C@H](Cc1ccc(O)cc1)NC(=O)[C@H](CCCNC(=N)N)NC(=O)[C@H](CCCNC(=N)N)NC(=O)[C@H](CC(C)C)NC(=O)[C@H](CC(=O)O)NC(=O)[C@H](C)NC(=O)[C@H](C)NC(=O)[C@H](Cc1ccc(O)cc1)NC(=O)[C@H](CCC(N)=O)NC(=O)[C@H](C)NC(=O)[C@H](CC(C)C)NC(=O)[C@H](CCC(N)=O)NC(=O)[C@H](CCC(=O)O)NC(=O)[C@@H]1CCCN1C(=O)[C@H](CCCCNC(=O)COCCOCCNC(=O)COCCOCCNC(=O)CC[C@H](NC(=O)[C@H]1CC[C@H](CNC(=O)CCCCCCCCCCCCCCCCCCC(=O)O)CC1)C(=O)O)NC(=O)[C@H](C)NC(=O)[C@H](CC(N)=O)NC(=O)[C@H](CC(=O)O)NC(=O)CNC(=O)[C@@H]1CCCN1C(=O)[C@H](Cc1ccc(O)cc1)NC(=O)[C@@H](NC(=O)[C@@H]1CCCN1C(=O)[C@H](CCC(=O)O)NC(=O)[C@H](CC(C)C)NC(=O)[C@@H]1CCCN1C(=O)[C@H](C)N)C(C)C)C(=O)N[C@@H](CCC(N)=O)C(=O)N[C@@H](CC(C)C)C(=O)N[C@@H](CC(C)C)C(=O)N[C@H](C(=O)N[C@@H](CCCNC(=N)N)C(=O)N1CCC[C@H]1C(=O)N[C@@H](CCCNC(=N)N)C(=O)N[C@@H](Cc1ccc(O)cc1)C(N)=O)[C@@H](C)O` [SEQ ID NO: 18, N-epsilon13-[2-(2-{2-[2-(2-{2-[(S)-4-Carboxy-4-({trans-4-[(19-carboxynonadecanoylamino)methyl]cyclohexanecarbonyl}amino)butyrylamino]-ethoxy}ethoxy)acetylamino]ethoxy}ethoxy)acetyl][Lys13,Leu17,Gln29,Leu30]hPP(1-36)] (H-APLEPVYPGDNAK([AEEA-AEEA-γGlu-Trx-C20 diacid])PEQLAQYAADLRRYIQLLTRPRY-NH2) was tested. Which EC50 did it give?
Answer: > 1000 nM
